{
  "source": "patent US20240124510A1",
  "about": "“Cyclic Glycoaminoacid Derivatives” (TFCHEM, priority 2021, published 2024)",
  "key": {"[1]": {"test_system": "normal human dermal fibroblasts (NHDF)", "test": "Signalling pathway analysis (Ingenuity Pathway Analysis, activation z-score)", "conditions": "for Activation z- score: 2 mg/ml on NHDF", "description": "• Results are considered and presented per gene (and not probe). A probe set is a collection of probes designed to interrogate a given sequence of a gene. […] Gene Ontology database has been more specifically used for the data interpretation. DAVID functional annotation part was used to cluster modulated genes into significant biological processes. […] DAVID database uses the Gene Ontology consortium (http://www.geneontology.org) vocabularies (GO terms) to describe gene products in terms of their associated biological processes. Among them, only biological processes with p-value ≤0.05 were taken into account. • Signal transduction pathway analsis: The results were then processed with IPA (Ingenuity Pathway Analysis, Qiagen®) software to identify signal transduction pathways modulated by each treatment. This software takes into account the Fold Change values of each gene and, when there is enough information, the direction of modulation of the signal transduction pathways can be identified. The relevance of the effect of each treatment on a given pathway was quantified by z-score. The z-score predicts the directional change on that effect.\nA more advanced bioinformatics analysis was performed using the Ingenuity Pathway Analysis software (IPA from Qiagen®). This analysis allows the identification of the impacted signalling pathways and predicts their modulation. The modulation is a stimulation when the Activation z-score is a positive value (Table 11) and an inhibition when the Activation z-score is a negative value (Table 12)."}, "[2]": {"test_system": "neonatal skin fibroblasts (CCD-27SK)", "test": "Preservation/protection of neonatal skin fibroblasts under starvation conditions, neutral red uptake assay", "format": "cell-based, human", "conditions": "for Variation of viability (stressed cells treated with compound 6 vs stressed cells): 17 mM; for OD 540 nm - mean value (cell viability): starvation medium + 17 mM", "procedure": "The neonatal skin fibroblasts (Cell line: CCD-27SK. ATCC number CRL-1475) were grown with DMEM medium supplemented with Fetal Bovine Serum 10% final, antibiotics (Penicillin/Streptomycin) 1% final and Amphotericin B 0.1% final. Fibroblasts were grown in 75 cm^2 culture flask to 80% confluence in 37° C. and 10% CO2 incubator. The medium was changed every two days by 37° C. preheated fresh medium.\nThis medium was composed of 45% subculturing medium without Fetal Bovine Serum mixed with 55% of Phosphate Buffer Saline IX containing EDTA (final concentration of 0.45 mM). This was referred to as serum-free medium or starvation medium.\nCompound 6 (MM=356.3 g/mol) was diluted in starvation medium to 17 mM final and pH was adjusted at 7.4 by addition of NaOH 1N.\nFibroblast cells were concentrated to 2.10^5 cells/ml and 100 μl of cell suspension was added in wells of a 96-well plate and incubated in 37° C. and 10% CO2 incubator for 4 hours.\nAfter cell adhesion the medium was changed and plates were incubated (37° C.-10% CO2) to perform the assay as follows: • One plate for each sampling times: D0, D4, D7 days; • Three wells for each condition (triplicate count) added with 120 μl of culture medium (surviving control), starvation medium (serum-free control) or compound 6 solution at 17 mM.\nThe neutral red uptake assay was used for the determination of cell viability. This assay is based on the ability of viable cells to incorporate and bind the supravital dye neutral red in its lysosomes. Thus, only the viable cells are dyed. At D4 and D7, the plates were incubated with neutral red solution for 3.5 hours. The cells are subsequently washed, the dye is extracted in each well and the absorbance is read using a spectrophotometer.\nFor sampling, 1 mL of DMEM (without phenol red indicator) with neutral red (OD=0.110) was added to the cells for 3.5 hours (37° C. 10% CO2). After incubation. the medium was removed. Two washes with PBS were realized and 1 mL of extraction solution (absolute ethanol 49%, ultrapure water 49%, glacial acetic acid 2%) was added. Plates were placed 15 minutes on rotary shaker in the dark before reading OD at 540 nm.\nThe OD540 nm average values were compared and the variation of viability was calculated as follows:\nVariation of viability at Dx=(OD540 nm of tested solution−blank) at Dx/(OD540 nm of stress control−blank) at Dx."}, "procollagen I": {"test_system": "procollagen I", "test": "Procollagen I secretion in coculture of human aged fibroblasts and mature adipocytes (ELISA)", "format": "cell-based", "conditions": "for secretion of Procollagen I, normalized by fibroblasts number, in percentage of the coculture control condition, Values: individual replicates", "description": "In order to evaluate its effect on fibroblast matrix and its anti-inflammatory properties, the effect of compound 6 has been tested on an adipocytes-aged fibroblasts coculture model, mimicking the interactions between dermis and hypodermis in the skin and allowed to explore in parallel the biological effects of the products on two cellular targets.\n• Experimental model: co-culture of human mature adipocytes cultured in 3D and human dermal fibroblasts cultured in 2D (AM3D-FB2D co-culture). This experimental model of AM3D-FB2D co-culture mimicked the interactions between dermis and hypodermis in the skin and allowed to explore in parallel the biological effects of the products on two cellular targets. • Donor characteristics: This study was performed on mature adipocytes and fibroblasts from two different donors (one donor for mature adipocytes and another donor for dermal fibroblasts). • Fibroblasts donor=person, BMI=28 kg/m^2 • Adipocytes donor=person, BMI=21.4 kg/m^2 • Treatment procedure: compound 6 was added to the co-culture medium daily for up to 6 days\nDermal fibroblasts were seeded in DMEM 10% FBS at 10000 cells/well. The day after, the adipocytes capsules of 50 μl were added in suspension above the fibroblasts and the medium was changed and replaced by a specific culture medium for the co-culture AM3D-FB2D. The formation of adipocytes capsules followed an internal standardized protocol. Briefly, the fully mature adipocytes were isolated from the hypodermis after digestion by collagenase. The isolated adipocytes were then washed with a wash buffer and encapsulated in a peptidic hydrogel to form 3D adipocytes capsules of 50 μl in size. Cells were incubated at 37° C. and 5% CO2 overnight for stabilization. Treatments were initiated at DO with a medium change at DO, D2, D3 and D5. The entire culture media of 24 h incubation was collected at D3 and D6, before being centrifugated and stored at −80° C. Each culture condition was done in triplicate.\nThe biochemical analyses on culture media were performed via ELISA using specific kits according to the manufacturer's recommendations: IL-6 (Duoset DY206, R&D Systems), and Hyaluronic Acid (HA) (Duoset, DY3614-05, R&D Systems and Procollagen I (Duoset, DY6220-05, R&D Systems) The results of HA and Procollagen I were normalized by fibroblasts cell number regarding the fact that these molecules were secreted mainly by fibroblasts. All the biochemical results were represented in percentage of the control condition.\nTo evaluate the effect of the compound 6 on fibroblasts' matrix, the extracellular concentrations of Procollagen I, that is secreted only by the fibroblasts, were measured at D3 and D6."}},
  "note": "Values joined by “and” are separate entries in the source; they are usually repeats but may differ in a detail not shown here. Equal entries are not always repeated.",
  "data": [
    {"molecule": "N[C@H]1CCCN(CC(F)(F)[C@]2(O)O[C@H](CO)[C@H](O)[C@H](O)[C@H]2O)C1=O", "note": "[Compound 6]", "values": [
      {"measurement": "Activation z- score", "setting": "[1]; Diseases or Functions Annotation: Differentiation of adipocytes", "value": 0.545},
      {"measurement": "Activation z- score", "setting": "[1]; Diseases or Functions Annotation: Metabolism of cholesterol", "value": 1.421},
      {"measurement": "Activation z- score", "setting": "[1]; Diseases or Functions Annotation: Synthesis of cholesterol", "value": 0.998},
      {"measurement": "Activation z- score", "setting": "[1]; Diseases or Functions Annotation: Synthesis of lipids, z-score >0 = increased", "value": 1.380},
      {"measurement": "Regulation of fibrogenesis, tensile strength of skin, synthesis of ROS, inflammatory response and chronic inflammatory disorder at a transcriptional level", "setting": "[1]; treatment of NHDF", "value": "down regulation"},
      {"measurement": "Regulation of lipid and cholesterol synthesis and differentiation of adipocytes at a transcriptional level", "setting": "[1]; treatment of NHDF", "value": "up regulation"},
      {"measurement": "Variation of viability (stressed cells treated with compound 6 vs stressed cells)", "setting": "[2]; D 4", "value": "2.3 and 2.32"},
      {"measurement": "OD 540 nm - mean value (cell viability)", "setting": "[2]; D 4", "value": 0.274},
      {"measurement": "Variation of viability (stressed cells treated with compound 6 vs stressed cells)", "setting": "[2]; D 7", "value": "3.4 and 3.39"},
      {"measurement": "OD 540 nm - mean value (cell viability)", "setting": "[2]; D 7", "value": 0.224},
      {"measurement": "secretion of Procollagen I, normalized by fibroblasts number, in percentage of the coculture control condition, Mean", "setting": "procollagen I; D3, 1 mg/ml", "value": 163, "unit": "%"},
      {"measurement": "secretion of Procollagen I, normalized by fibroblasts number, in percentage of the coculture control condition, Values", "setting": "procollagen I; D3, 1 mg/ml", "value": "162% and 158% and 168%"},
      {"measurement": "secretion of Procollagen I, normalized by fibroblasts number, in percentage of the coculture control condition, Mean", "setting": "procollagen I; D3, 2 mg/ml", "value": 159, "unit": "%"},
      {"measurement": "secretion of Procollagen I, normalized by fibroblasts number, in percentage of the coculture control condition, Values", "setting": "procollagen I; D3, 2 mg/ml", "value": "177% and 144% and 157%"},
      {"measurement": "secretion of Procollagen I, normalized by fibroblasts number, in percentage of the coculture control condition, Mean", "setting": "procollagen I; D3, 3 mg/ml", "value": 173, "unit": "%"},
      {"measurement": "secretion of Procollagen I, normalized by fibroblasts number, in percentage of the coculture control condition, Values", "setting": "procollagen I; D3, 3 mg/ml", "value": "202% and 78% and 238%"},
      {"measurement": "secretion of Procollagen I, normalized by fibroblasts number, in percentage of the coculture control condition, Mean", "setting": "procollagen I; D6, 1 mg/ml", "value": 418, "unit": "%"},
      {"measurement": "secretion of Procollagen I, normalized by fibroblasts number, in percentage of the coculture control condition, Values", "setting": "procollagen I; D6, 1 mg/ml", "value": "312% and 472% and 469%"},
      {"measurement": "secretion of Procollagen I, normalized by fibroblasts number, in percentage of the coculture control condition, Mean", "setting": "procollagen I; D6, 2 mg/ml", "value": 411, "unit": "%"},
      {"measurement": "secretion of Procollagen I, normalized by fibroblasts number, in percentage of the coculture control condition, Values", "setting": "procollagen I; D6, 2 mg/ml", "value": "284% and 488% and 460%"},
      {"measurement": "secretion of Procollagen I, normalized by fibroblasts number, in percentage of the coculture control condition, Mean", "setting": "procollagen I; D6, 3 mg/ml", "value": 474, "unit": "%"},
      {"measurement": "secretion of Procollagen I, normalized by fibroblasts number, in percentage of the coculture control condition, Values", "setting": "procollagen I; D6, 3 mg/ml", "value": "515% and 398% and 508%"}
    ]}
  ]
}
